Test results as given in patent publication US20250091994A1, “RAS/RAF BINDING INHIBITOR COMPOUND” (NATIONAL UNIVERSITY CORPORATION KOBE UNIVERSITY, priority 2021, published 2025).

Key:
[1] = system: small cell lung cancer cells SHP77 (K-RasG12V); experiment: Cell growth inhibition, suspension cells SHP77; assay type: cell-based; details: Homo sapiens, 72 hours; for inhibition at 3.2 µM: read-out: SHP77 (KRasG12V) % inhibition at 3.2 μM (**)
Protocol: (§1) The cell growth inhibitory activity of the compound of the present invention on human culture cells having active-type mutation in Ras was evaluated by the below-mentioned method using suspension cancer cells {acute lymphoblastic leukemia cells CCRF-CEM (K-RasG12D), promyelocytic leukemia cells HL60 (N-RasQ61L), acute lymphoblastic leukemia cells MOLT4 (N-RasG12C), and small cell lung cancer cells SHP77 (K-RasG12V)} and adherent cancer cells {large bowel cancer cells SW480 (K-RasG12V) and large bowel cancer cell SW620 (K-RasG12V)}.
(§2) (Case of suspension cells) The cells suspended in a medium containing 0.5% (v/v) fetal bovine serum (FBS) and each compound solution (final DMSO concentration: 1%) were seeded on a 96-well plate (2 to 4×10^4 cells/well), and the resulting mixture was then cultured at 37° C. in the presence of 5% CO2 for 72 hours.
(§3) Thereafter, the number of viable cells was measured using Cell Counting Reagent (Nacalai Tesque) in accordance with the manufacturer's instructions. Inhibition by the test compound was determined according to the following equation: […]

[2] = target: GTPγS-bound human HRasG12V / human c-Raf-1 Ras binding domain (RBD) (Homo sapiens (Human), UniProt P01112, G12V); experiment: Ras-Raf binding inhibition ELISA; details: for IC50: anti-HRas antibody C-20, read-out: ELISA IC50 (μM): 1st Ab_C-20
GTPγS-bound human HRasG12V / human c-Raf-1 Ras binding domain (RBD), sequence (P01112 whole entry G12V, the tested form may be a part): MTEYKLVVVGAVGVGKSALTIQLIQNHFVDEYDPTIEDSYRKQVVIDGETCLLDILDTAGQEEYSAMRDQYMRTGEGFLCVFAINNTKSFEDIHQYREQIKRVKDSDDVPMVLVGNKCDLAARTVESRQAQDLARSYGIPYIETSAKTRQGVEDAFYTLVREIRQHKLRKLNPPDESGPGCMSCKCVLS
Outline: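 GST-c-Raf-1 RBD (aa 50-131) immobilized on glutathione plates, then GTPγS-loaded full-length HRasG12V added with compound (final 10% DMSO), 1 h at 30 °C, pH 7.4 Tris buffer. Bound Ras detected by anti-HRas antibody (C-20 or 259) and HRP secondary, TMB read at OD450; IC50 from inhibition.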

[3] = system: large bowel cancer cell SW620 (K-RasG12V); experiment: Cell growth inhibition, adherent cells SW620; assay type: cell-based; details: Homo sapiens, SW-620, 72 hours; for inhibition at 3.2 µM: read-out: SW620 (KRasG12V) % inhibition at 3.2 μM (***)
Protocol: as §1
(Case of adherent cells) The cells suspended in a medium containing 10% FBS (1 to 2×10^4 cells/well) were seeded on a 96-well plate, and were then cultured at 37° C. in the presence of […]. Thereafter, the medium was exchanged with a medium containing […], to which each compound solution (final DMSO concentration: […]) had been added, and the cells were then cultured at 37° C. in the presence of […] for 72 hours.
as §3

[4] = system: promyelocytic leukemia cells HL60 (N-RasQ61L); experiment: Cell growth inhibition, suspension cells HL60; assay type: cell-based; details: Homo sapiens, HL-60; 3.2 μM (****), 72 hours; read-out: HL-60 (NRasQ61L) % inhibition at 3.2 μM (****)
Outline: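 Suspension cells, 2 to 4×10^4 per well, cultured with compound in medium with 0.5% FBS (1% DMSO final) for 72 h at 37° C, 5% CO2. Viable cells counted with Cell Counting Reagent; inhibition calculated relative to controls.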

[5] = system: acute lymphoblastic leukemia cells CCRF-CEM (K-RasG12D); experiment: Cell growth inhibition, suspension cells CCRF-CEM; assay type: cell-based; details: Homo sapiens, 3.2 μM (***), 72 hours, read-out: CCRF-CEM (KRasG12D) % inhibition at 3.2 μM (***)
Protocol: as §1, §2, §3

SMILES	inhibition at 3.2 µM [1]	inhibition at 1 µM [2]	inhibition at 3.2 µM [3]	IC50 [2]	inhibition at 1 µM ([1]; 1 μM, read-out: SHP77 (KRasG12V) % inhibition at 1 μM)	inhibition at 1 µM ([3]; 1 μM, read-out: SW620 (KRasG12V) % inhibition at 1 μM)	inhibition at 3.2 µM [4]	inhibition at 3.2 µM [5]	inhibition at 10 µM [2]
CC(=O)N1CCc2c(cccc2-c2cc(/C=C3/C(=O)c4ccccc4N3C(C)=O)nc3ccccc23)C1 [Example 193, (Z)-1-acetyl-2-((4-(2-acetyl-1,2,3,4-tetra-hydroisoquinolin-5-yl)quinolin-2-yl)methylene)-indolin-3-one]	98.1%	60.4%	96.1%						
CC(=O)N1/C(=C\c2nc3ccc(C(=O)O)cc3cc2-c2cccc3ccccc23)C(=O)c2ccccc21 [Example 202, (Z)-2-((1-acetyl-3-oxoindolin-2-ylidene)methyl)-3-(naphthalen-1-yl)-quinoline-6-carboxylic acid]	63.6%		96.6%						
CC(=O)N1/C(=C\c2cc(-c3cnccn3)c3cc(C(=O)N4CCOCC4)ccc3n2)C(=O)c2ccccc21 [Example 194, (Z)-1-acetyl-2-((6-(morpholine-4-carbonyl)-4-(pyrazin-2-yl)-quinolin-2-yl)-methylene)indolin-3-one]	58.3%	55.4%		0.9 µM					
CC(=O)N1/C(=C\c2cc(-c3cccc4ccccc34)c3cc(C(=O)O)ccc3n2)C(=O)c2ccccc21 [Example 153, (Z)-2-((1-acetyl-3-oxoindolin-2-ylidene)methyl)-4-(naphthalen-1-yl)quinoline-6-carboxylic acid]	65.7%	63.1%	96.1%	1.1 µM					
CC(=O)N1/C(=C\c2cc(-c3cccc4cccnc34)c3cc(CNC4CCOCC4)ccc3n2)C(=O)c2ccccc21 [Example 167, (Z)-1-acetyl-2-((6-(((tetrahydro-2H-pyran-4-yl)-amino)methyl)-[4,8′-biquinolin]-2-yl)methylene)-indolin-3-one]	65.8%	62.2%	64.4%	0.8 µM					
CC(=O)N1/C(=C\c2cc(-c3ccc4ccccc4c3)c3cc(C(=O)N4CCN(C5COC5)CC4)ccc3n2)C(=O)c2ccccc21 [Example 163, (Z)-1-acetyl-2-((4-(naphthalen-2-yl)-6-(4-(oxetan-3-yl)piperazine-1-carbonyl)quinolin-2-yl)methylene)-indolin-3-one]	72.3%	63.8%	34.7%	0.7 µM					
CC(=O)N1/C(=C\c2cc(-c3ccc4ccccc4c3)c3cc(CNC4CCOCC4)ccc3n2)C(=O)c2ccccc21 [Example 169, (Z)-1-acetyl-2-((4-(naphthalen-2-yl)-6-(((tetrahydro-2H-pyran-4-yl)-amino)methyl)-quinolin-2-yl)-methylene)indolin-3-one]	51.5%	52.4%	35.1%	0.9 µM					
CC(=O)N1CCc2cc(-c3cc(/C=C4/C(=O)c5ccccc5N4C(C)=O)nc4ccccc34)ccc2C1 [Example 187, (Z)-1-acetyl-2-((4-(2-acetyl-1,2,3,4-tetra-hydroisoquinolin-6-yl)-quinolin-2-yl)methylene)-indolin-3-one]		66.7%			66.8%	39.3%			
CC(=O)N1/C(=C\c2cc(-c3cccc(-c4ccccc4)c3)c3cc(C(=O)O)ccc3n2)C(=O)c2ccccc21 [Example 152, (Z)-4-([1,1′-biphenyl]-3-yl)-2-((1-acetyl-3-oxo-indolin-2-ylidene)-methyl)quinoline-6-carboxylic acid]	81.1%	53.5%	97.2%	0.9 µM					
CC(=O)N1/C(=C\c2nc3ccc(-c4nnn[nH]4)cc3cc2-c2cccc3ccccc23)C(=O)c2ccccc21 [Example 214, (Z)-1-acetyl-2-((3-(naphthalen-1-yl)-6-(1H-tetrazol-5-yl)quinolin-2-yl)methylene)-indolin-3-one]			92.2%	28.9 µM			36.7%	96%	
CC(=O)N1/C(=C\c2cc(-c3ccc(-c4ccccc4)cc3)c3cc(C(=O)O)ccc3n2)C(=O)c2ccccc21 [Example 156, (Z)-4-([1,1′-biphenyl]-4-yl)-2-((1-acetyl-3-oxoindolin-2-ylidene)methyl)-quinoline-6-carboxylic acid]	35.1%	52%	99%	0.9 µM					
CC(=O)N1/C(=C\c2cc(-c3nccn3C)c3cc(C(=O)N4CCOCC4)ccc3n2)C(=O)c2ccccc21 [Example 180, (Z)-1-acetyl-2-((4-(1-methyl-1H-imidazol-2-yl)-6-(morpholine-4-carbonyl)quinolin-2-yl)methylene)-indolin-3-one]	69.2%	43.7%		1.5 µM					
CC(=O)N1/C(=C\c2ccc3cc(C(=O)N4CCOCC4)cc(-c4cccc5ccccc45)c3n2)C(=O)c2ccccc21 [Example 197, 1-acetyl-2-((6-(morpholine-4-carbonyl)-8-(naphthalen-1-yl)-quinolin-2-yl)-methylene)indolin-3-one]	65.7%		35.5%						35.3%
CC(=O)N1/C(=C\c2cc(-c3ccc(-c4ccccc4)cc3)c3cc(CNC4CCOCC4)ccc3n2)C(=O)c2ccccc21 [Example 168, (Z)-2-((4-([1,1′-biphenyl]-4-yl)-6-(((tetrahydro-2H-pyran-4-yl)amino)-methyl)quinolin-2-yl)methylene)-1-acetylindolin-3-one]	53.1%	48.4%		1.3 µM					
CC(=O)N1/C(=C\c2cc(-c3ccc4ccccc4c3)c3cc(C(=O)O)ccc3n2)C(=O)c2ccccc21 [Example 157, (Z)-2-((1-acetyl-3-oxoindolin-2-ylidene)methyl)-4-(naphthalen-2-yl)quinoline-6-carboxylic acid]	49.2%	61.4%	97.5%	0.6 µM					
CC(=O)N1/C(=C\c2cc(-c3cccc(-c4ccccc4)c3)c3cc(C(=O)N4CCN(C5COC5)CC4)ccc3n2)C(=O)c2ccccc21 [Example 158, (Z)-2-((4-([1,1′-biphenyl]-3-yl)-6-(4-(oxetan-3-yl)-piperazine-1-carbonyl)quinolin-2-yl)methylene)-1-acetylindolin-3-one]	72.4%	59.2%	58.5%	0.8 µM					
CC(=O)N1/C(=C\c2nc3ccc(C(=O)N4CCOCC4)cc3cc2-c2cnn(C)c2)C(=O)c2ccccc21 [Example 198, (Z)-1-acetyl-2-((3-(1-methyl-1H-pyrazol-4-yl)-6-(morpholine-4-carbonyl)quinolin-2-yl)methylene)-indolin-3-one]			30.4%				75.1%	68.7%	
CC(=O)N1/C(=C\c2cc(-c3cccc4ccccc34)c3cc(C(=O)N4CCN(C5COC5)CC4)ccc3n2)C(=O)c2ccccc21 [Example 159, (Z)-1-acetyl-2-((4-(naphthalen-1-yl)-6-(4-(oxetan-3-yl)piperazine-1-carbonyl)quinolin-2-yl)methylene)-indolin-3-one]	52.6%	72.7%	96.6%	0.3 µM					
CC(=O)N1/C(=C\c2cc(-c3cccc(-c4ccccc4)c3)c3cc(CNC4CCOCC4)ccc3n2)C(=O)c2ccccc21 [Example 164, (Z)-2-((4-([1,1′-biphenyl]-3-yl)-6-(((tetrahydro-2H-pyran-4-yl)amino)-methyl)quinolin-2-yl)methylene)-1-acetylindolin-3-one]	43.5%	48.7%		1.2 µM					
